Laboratory results from patent US9732060B2, “Aminotriazine derivative and pharmaceutical composition comprising the same” (Shionogi & Co., Ltd., priority 2013, dated 2017).

How the values were obtained:
[1] = Protein binding test (equilibrium dialysis, unbound fraction in serum); format: in vitro ADME; conditions: 37° C.
Method: The unbound fraction of the present compound in serum was measured using serum of various species.
The reactive conditions are as follows: Evaluation method, Equilibrium dialysis; Reaction time, 24 hours; Reaction temperature, 37° C.; Concentration of the present compound, 2 μg/mL
The test solution was added to each serum and the mixture was agitated to prepare the serum samples at the concentration mentioned above. Each serum sample was added into one side of the cell and phosphate buffered saline (PBS) was added into the other side to perform equilibrium dialysis at 37° C. for 24 hours. Then, the concentration of the compounds in the samples that were obtained from both sides was measured by LC/MS/MS.
The ratio of PBS concentration to serum concentration is expressed as unbound fraction (fu),

[2] = Solubility test (1% DMSO, artificial intestinal juice pH 6.8); format: physicochemical; conditions: artificial intestinal juice pH 6.8 with 1% DMSO, 25 °C, fassgf or other biorelevant, kinetic from dmso stock, artificial intestinal juice pH 6.8, 25 degrees Celsius, read-out: Solubulity
[3] = molecular target: human P2X3 receptor (Homo sapiens (Human), UniProt P56373); test: Evaluation of human P2X3 receptor inhibitory activity (FLIPR Ca fluorescence, ATP-evoked); format: cell-based; conditions: C6BU-1 cells stably expressing human P2X3 receptor
Method: Stably expressing cell line (C6BU-1 cell transfected with human P2X3 receptor gene (GenBank accession number Y07683) was used. The cells were seeded in a 384-well PDL-coated microtiter plate at a concentration of 3000 cells/well and cultured in the medium (8.3% fetal bovine serum, 8.3% horse serum, and 1% antibiotic and antifungal in DMEM) for one day at 37° C. under 5% carbon dioxide atmosphere. The medium was replaced with 4 μM Fluo-3-AM solution (20 mM HEPES, 137 mM NaCl, 2.7 mM KCl, 0.9 mM MgCl2, 5.0 mM CaCl2, 5.6 mM D-glucose, 2.5 mM probenecid, 0.5% BSA, and 0.04% Pluronic P-127, pH 7.5) and incubated at 37° C. under 5% dioxide carbon atmosphere for one hour. The plate was washed with washing buffer (20 mM HEPES, 137 mM NaCl, 2.7 mM KCl, 0.9 mM MgCl2, 5.0 mM CaCl2, 5.6 mM D-glucose, 2.5 mM probenecid, pH 7.5), and each well was added with 20 μL of the washing buffer. The plate was placed in High-Throughput Screening System FLIPR 384 (Molecular Device Co.). Measurement of fluorescence intensity by […] was started, and 20 μL of DMSO solutions containing different concentrations of the test compound as prepared by dilution with dilution buffer (20 mM HEPES, 137 mM NaCl, 2.7 mM KCl, 0.9 mM MgCl2, 5.0 mM CaCl2, 5.6 mM D-glucose, 2.5 mM probenecid, 0.1% Pluronic F-127, pH 7.5) were dispensed to each well through the built-in automatic dispenser. Five minutes after, 150 nM ATP solution (25 μL) prepared by dilution with the dilution buffer was dispensed through the built-in automatic dispenser, and the measurement of fluorescence intensity was continued for 4 min. For each well, the specific maximum fluorescence intensity was calculated as the ratio of the maximum fluorescence intensity after addition of the ATP solution to the fluorescence intensity at the starting of the measurement. […] The specific maximum fluorescence intensify and IC50 were calculated using Spotfire (Science & Technology Systems. Inc.)

Sequence of human P2X3 receptor (P56373 whole entry): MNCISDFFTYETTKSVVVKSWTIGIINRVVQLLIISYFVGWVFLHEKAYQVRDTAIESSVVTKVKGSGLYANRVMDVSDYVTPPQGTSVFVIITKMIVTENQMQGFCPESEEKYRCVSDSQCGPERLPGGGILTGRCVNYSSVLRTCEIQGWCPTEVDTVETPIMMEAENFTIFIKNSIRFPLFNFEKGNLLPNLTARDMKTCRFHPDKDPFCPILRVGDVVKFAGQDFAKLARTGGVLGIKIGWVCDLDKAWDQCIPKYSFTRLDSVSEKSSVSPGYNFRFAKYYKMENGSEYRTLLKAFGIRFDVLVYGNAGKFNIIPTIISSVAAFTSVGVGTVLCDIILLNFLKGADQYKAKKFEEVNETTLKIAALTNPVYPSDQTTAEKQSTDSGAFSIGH

Q: For `Cc1ccc(Cn2c(=O)n(C[C@H](C)C(=O)O)c(=O)[nH]/c2=N\c2ccc(Oc3ccc(F)cn3)cc2)cc1` [Compound I-040], which fraction unbound at 24 h, 2 μg/mL [1] is on record?
A: 0.035

Q: What about the solubility at 18 h [2] of the same compound?
A: > 50 µM

Q: And the IC50 [3]?
A: 6 nM
